# Measurements: patent US6635429B1, “Heterodimeric nuclear receptors proteins, genes encoding same, and usage thereof” (Institut National de la Sante et de la Recherche Medicale, priority 1992, dated 2003)
# Tests used:
# [1] = system: RARα and RXRα homodimers or heterodimers
# [2] = system: None (vector without insert); assay: 3ERE-URA3 reporter in yeast strain PL3, vector without insert (control "None"); assay type: cell-based; conditions: no receptor, yeast PL3, in presence of ligand
# RXRα-ER(C) = target: T1, RXRα-ER(C) (Mus musculus, UniProt P28700, A202E/D171H/D178A/D181Q/G144N/G162A/I142V/INS139MESAKETRY/INS205MKGGIRKDRRGGRMLKHKRQRDDGEGRGEVGSM/K150Y/K170G/K180N/L172N/L183T/L201Y/M203V/N179T/N190K/Q188R/Q198R/R146Y/R169Q/R177P/R187N/R191S/S147A/T167S/T173D/T175M/V168I/Y155W/Y194A/Y197L); assay: 3ERE-URA3 reporter transactivation in yeast strain PL3 (OMPdecase activity); assay type: cell-based
# T1 construct: (a.a. 1 to 467), mouse RXRαdn; expressed in transfected cells; host or cells: Saccharomyces cerevisiae PL3 (multicopy YEp10/YEp90, PGK promoter)
# T1 sequence (P28700 with tags, fused parts or gaps INS139MESAKETRY/I142V/G144N/R146Y/S147A/K150Y/Y155W/G162A/T167S/V168I/R169Q/K170G/D171H/L172N/T173D/T175M/R177P/D178A/N179T/K180N/D181Q/L183T/R187N/Q188R/N190K/R191S/Y194A/Y197L/Q198R/L201Y/A202E/M203V/INS205MKGGIRKDRRGGRMLKHKRQRDDGEGRGEVGSM): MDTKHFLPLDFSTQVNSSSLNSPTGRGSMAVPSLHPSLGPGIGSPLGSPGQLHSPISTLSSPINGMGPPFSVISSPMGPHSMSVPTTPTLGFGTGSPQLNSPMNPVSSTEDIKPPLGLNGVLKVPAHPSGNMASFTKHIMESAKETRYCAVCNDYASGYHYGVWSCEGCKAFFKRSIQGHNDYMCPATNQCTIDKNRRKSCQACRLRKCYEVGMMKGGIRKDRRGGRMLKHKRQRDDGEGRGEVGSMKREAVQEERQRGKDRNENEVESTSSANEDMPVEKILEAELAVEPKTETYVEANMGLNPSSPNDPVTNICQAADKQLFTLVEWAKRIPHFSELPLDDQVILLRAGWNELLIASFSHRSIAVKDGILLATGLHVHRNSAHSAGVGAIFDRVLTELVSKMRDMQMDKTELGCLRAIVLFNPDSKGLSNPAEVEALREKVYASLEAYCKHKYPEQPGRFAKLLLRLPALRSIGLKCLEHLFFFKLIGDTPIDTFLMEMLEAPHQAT
# Description: (§1) Induction of the reporter was determined by measuring the specific activity of the URA3 gene product OMPdecase (see above).
# Vector without insert was used as a control (“None”).
# RARα1-ER.CAS = target: T2, RARα1-ER.CAS (Homo sapiens, UniProt P10276, INS60IETQSSSSEEIVPSPPSPPPLPRIYKPCAVCNDYASGYHYGVWSCEGCKAFFKRSIQGHNDYMCPATNQCTIDKNRRKSCQACRLRKCYEVGMSKES)
# T2 sequence (P10276 with tags, fused parts or gaps isoform P10276-3): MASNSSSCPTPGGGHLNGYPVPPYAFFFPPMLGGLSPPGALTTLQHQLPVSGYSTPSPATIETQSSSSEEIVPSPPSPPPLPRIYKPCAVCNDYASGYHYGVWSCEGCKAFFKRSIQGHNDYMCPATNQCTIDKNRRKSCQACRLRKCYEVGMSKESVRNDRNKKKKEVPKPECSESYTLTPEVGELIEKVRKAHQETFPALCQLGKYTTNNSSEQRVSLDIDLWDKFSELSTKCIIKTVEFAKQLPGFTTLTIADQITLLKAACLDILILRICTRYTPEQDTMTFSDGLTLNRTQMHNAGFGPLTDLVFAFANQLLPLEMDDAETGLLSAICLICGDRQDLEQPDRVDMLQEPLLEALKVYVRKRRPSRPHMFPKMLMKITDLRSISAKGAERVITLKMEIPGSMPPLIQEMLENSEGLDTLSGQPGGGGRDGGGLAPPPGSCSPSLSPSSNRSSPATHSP
# Description: The 5′ prime flank of each construct contains a mammalian Kozak's sequence sandwiched between the EcoR1 and the translation start codon (5′-[…]-3′). […] PCR and site-directed mutagenesis were used to create RARα(DEF)-ER.CAS, RARα1(AB)-ER(C), RXRα(DE)-ER.CAS and RXRα(AB)-ER(C) as shown in FIG. 10a. All sequences generated by PCR or site directed mutagenesis were verified by sequencing. […] For transactivation experiments, transformants were grown exponentially for approximately 5 generations in selective medium […] uracil in the presence or absence of ligand, in conditions of diffuse light.
# as §1
# Vector without insert was used as a control (“None”). Transactivation data are expressed as OMPdecase activities; the mean values shown in the table were determined from duplicate assays with three individual transformants for each clone. The numbers in parentheses indicate the fold induction over the activity observed for each receptor in the absence of ligand.
# hRAR-γ binding to β-RARE = target: T3, hRAR-γ binding to β-RARE (Homo sapiens, UniProt P13631); assay: Gel retardation assay of RAR binding to β-RARE (RBF complementation); conditions: with HeLa cell NE
# T3 construct: fused to the amino terminal amino acid of full length hRAR-γ; 14 amino acids from the parental vector pEt3a (bacterially expressed preparation only) (N); made in house; host or cells: E. coli BL21 (DE3) plysS; also rVV-infected HeLa cells, rBV-infected Sf9 cells, yeast (ubiquitin fusion) and rabbit reticulocyte lysate
# T3 sequence (P13631 1-454): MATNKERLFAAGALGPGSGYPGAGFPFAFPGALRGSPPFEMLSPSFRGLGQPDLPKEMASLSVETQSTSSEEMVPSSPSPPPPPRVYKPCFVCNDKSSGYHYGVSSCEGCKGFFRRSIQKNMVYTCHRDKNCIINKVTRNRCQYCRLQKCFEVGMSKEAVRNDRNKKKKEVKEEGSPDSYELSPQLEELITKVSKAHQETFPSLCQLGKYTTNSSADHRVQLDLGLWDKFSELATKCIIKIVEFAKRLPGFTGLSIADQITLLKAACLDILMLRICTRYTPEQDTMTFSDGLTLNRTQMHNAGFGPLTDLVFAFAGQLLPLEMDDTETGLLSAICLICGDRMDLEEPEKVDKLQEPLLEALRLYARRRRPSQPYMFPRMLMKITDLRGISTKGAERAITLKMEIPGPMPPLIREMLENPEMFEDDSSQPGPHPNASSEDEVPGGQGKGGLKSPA
# T3 sequence (P28702 1-533 partner): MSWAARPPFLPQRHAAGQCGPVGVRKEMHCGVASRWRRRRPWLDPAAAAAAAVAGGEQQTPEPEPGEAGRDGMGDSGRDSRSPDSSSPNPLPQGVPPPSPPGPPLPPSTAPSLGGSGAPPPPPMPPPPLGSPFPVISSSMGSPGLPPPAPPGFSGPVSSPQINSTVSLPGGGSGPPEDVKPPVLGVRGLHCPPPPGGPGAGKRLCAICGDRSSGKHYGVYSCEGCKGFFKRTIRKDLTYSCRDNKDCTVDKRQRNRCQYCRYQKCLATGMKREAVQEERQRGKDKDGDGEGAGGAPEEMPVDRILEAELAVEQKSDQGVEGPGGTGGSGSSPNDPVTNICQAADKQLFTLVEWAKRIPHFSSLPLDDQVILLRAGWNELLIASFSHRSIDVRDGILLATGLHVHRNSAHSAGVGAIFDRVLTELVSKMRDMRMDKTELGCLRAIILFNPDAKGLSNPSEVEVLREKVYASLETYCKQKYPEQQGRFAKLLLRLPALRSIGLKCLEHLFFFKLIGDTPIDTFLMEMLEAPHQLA
# Description: For gel retardation experiments comparing RAR and RXR subtypes and deletion mutants, all proteins were produced by in vitro translation in the presence of [^35S]methionine.
# Purification of rVV- and rBV-expressed hRAR-γ is being described elsewhere (Chen et al., manuscript in preparation). […] All steps were carried out at 4° C. and RBF activity was monitored through all purification steps by a complementation gel retardation assay using bacterially-expressed hRAR-γ as described above. […] The column was washed with equilibration buffer until the A280 of the eluent returned to baseline. […] The column was washed with equilibration buffer until the A280 of the eluent returned to baseline and then with 4 column volumes of buffer A containing 0.45 M ammonium sulfate and 50 mM KCl. The column was then eluted with an 18 ml linear gradient from 0.45 to 0 M ammonium sulfate in buffer A containing 50 mM KCl.
# RARα = target: T4, RARα (Homo sapiens, UniProt P10276); assay: URA3 reporter (DR5 etc.) transactivation in yeast strain YPH250 (OMPdecase activity); assay type: cell-based; conditions: RARα alone, ligand 5×10^−7 M (500 nM)
# T4 construct: The human RARα1 (aa 1-462); expressed in transfected cells; host or cells: Saccharomyces cerevisiae YPH250 (YEp10/YEp90)
# T4 sequence (P10276 1-462): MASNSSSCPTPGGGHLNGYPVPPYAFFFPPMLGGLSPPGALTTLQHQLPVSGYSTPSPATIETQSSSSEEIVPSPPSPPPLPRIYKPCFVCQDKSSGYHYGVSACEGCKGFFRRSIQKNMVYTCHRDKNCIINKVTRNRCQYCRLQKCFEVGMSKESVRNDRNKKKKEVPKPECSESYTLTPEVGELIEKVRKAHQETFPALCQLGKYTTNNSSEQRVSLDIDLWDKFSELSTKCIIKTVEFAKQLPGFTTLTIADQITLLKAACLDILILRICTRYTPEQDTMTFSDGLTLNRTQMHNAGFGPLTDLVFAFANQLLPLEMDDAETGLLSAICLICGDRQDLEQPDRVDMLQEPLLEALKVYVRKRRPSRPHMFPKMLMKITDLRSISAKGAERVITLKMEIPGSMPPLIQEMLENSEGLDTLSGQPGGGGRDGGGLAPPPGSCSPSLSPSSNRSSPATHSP
# [3] = FIG. 10b dose response, FIG. 10c ligand 10^−6 M
compound,measurement,setting,value
"CC1=C(/C=C/C(C)=C\C=C\C(C)=C\C(=O)O)C(C)(C)CCC1 [9C-RA, 9-cis retinoic acid]",effect on binding of homodimers or heterodimers to the probes,[1],did not further stimulate
same,OMP decase activity units,[2],0.02 units
"CC1=C(/C=C/C(C)=C\C=C\C(C)=C\C(=O)O)C(C)(C)CC=C1 [9C-ddRA, 9-cis 3,4-didehydroretinoic acid]",induction of activation by RXRα-ER(C),RXRα-ER(C); [3],induced
"CC1=C(/C=C/C(C)=C/C=C/C(C)=C/C(=O)O)C(C)(C)CCC1 [T-RA, all-trans retinoic acid]",OMP decase activity units,"RARα1-ER.CAS; 3ERE-URA3 reporter, yeast PL3, in presence of ligand",14.70 units
same,stimulation of transactivation by RARα1-ER.CAS,RARα1-ER.CAS; [3],comparably stimulated
same,effect on binding of homodimers or heterodimers to the probes,[1],did not further stimulate
same,effect on formation of the hRAR-γ/β-RARE complex,hRAR-γ binding to β-RARE,In no case was the formation of the complex affected
same,"induction of OMPdecase activity, DR5-URA3 reporter",RARα,approx. 5 fold
same,OMP decase activity units,[2],0.02 units
"CC1=C(/C=C/C(C)=C/C=C/C(C)=C/C(=O)O)C(C)(C)CC=C1 [T-ddRA, all-trans 3,4-didehydroretinoic acid]",conversion to 9-cis stereoisomers in yeast,RXRα-ER(C); inferred from lack of RXRα-ER(C) activation,not significantly converted
